Measurements published in paper PMC9855371, “Antiparasitic Activity of Fluorophenyl-Substituted Pyrimido[1,2-a]benzimidazoles” (Biomedicines, 2023).

Assays:
Toxoplasma gondii = Toxoplasma gondii tachyzoite (RH strain) growth in infected Vero cells, infection index; assay type: cell-based; conditions: after 72 h, means of n = 3, SD ± 15%, read-out: EC50 (T. gondii)
Procedure: Serial passages of cells of the Vero cell line (ATCC® CCL81™, Manassas, VA, USA) were applied for the cultivation of T. gondii tachyzoites of the RH strain (a gift from Dr. Saeed El-Ashram, State Key Laboratory for Agrobiotechnology, China Agricultural University, Beijing, China). Vero cells were cultured by using complete RPMI 1640 medium with heat-inactivated 10% FBS in a humidified 5% CO2 atmosphere, at 37 °C. The 96-well plates (5 × 10^3 cells/well in 200 µL RPMI 1640 medium) were used for the cultivation of the Vero cells and then incubated, at 37 °C, and 5% CO2 for one day, followed by removal of medium and washing the cells with PBS. Then, RPMI 1640 medium containing 2% FBS and T. gondii tachyzoites (RH strain) was given to the cells at a ratio of 5 (parasite):1 (Vero cells). After incubation, at 37 °C, and 5% CO2 for 5 h, cells were washed with PBS and then treated as described below.
Control: RPMI 1640 medium containing DMSO (1%)
Experimental: Medium + compounds (dissolved in DMSO) (50, 25, 12.5, 6.25, 3.13, 1.65, and 0.75 µg mL^−1).
After incubation, at 37 °C, and 5% CO2 for 72 h, the cells were washed with PBS, fixed in 10% formalin and stained with 1% toluidine blue. Examination of the cells and determination of the infection index (number of cells infected from 200 cells tested) of T. gondii were carried out with an inverted photomicroscope. The following equation was used for the calculation of the inhibition in %:Inhibition (%) = (I Control − I Experimental)/(I Control) × 100 where “I Control” refers to the infection index of untreated cells and “I Experimental” refers to the infection index of cells treated with test compounds.
Then, effects of test compounds on parasite growth were expressed as EC50 (effective concentration at 50%) values. EC50 values were obtained from three independent experiments.

Vero cells = assay: In vitro cytotoxicity MTT assay in Vero cells; assay type: cell-based; conditions: Chlorocebus sabaeus; after 72 h; Vero cells (African green monkey kidney epithelial cells); means of n = 3, SD ± 15%
Procedure: MTT assays were carried out for a cytotoxicity evaluation of the test compounds. Briefly, Vero cells were cultured in 96-well plates (5 × 10^3 cells/well/200 µL) for 24 h in RPMI 1640 medium with 10% FBS and 5% CO2, at 37 °C. Cells were washed with PBS, followed by treatment with test compounds for 72 h at varying concentrations (50, 25, 12.5, 6.25, 3.13, 1.65, and 0.75 µg mL^−1) in 10% FBS medium. Cells treated solely with medium in 2% FBS were used as a negative control. The supernatant was discarded, 50 µL RPMI 1640 medium containing 14 µL MTT (5 mg mL^−1) was added, and the cells were incubated for 4 h. The supernatant was removed again, and 150 µL DMSO was added in order to dissolve the formed formazan. A FLUOstar OPTIMA spectrophotometer was applied for colorimetric analysis (λ = 540 nm). The cytotoxicity was expressed by IC50 values (concentration which caused a 50% reduction in viable cells). IC50 values were calculated from three independent experiments.

[1] = test system: Leishmania major promastigotes; assay: Leishmania major promastigote viability, MTT assay; assay type: cell-based; conditions: Leishmania major promastigotes after 72 h, means of n = 3, SD ± 15%
[2] = test system: Leishmania major amastigotes; assay: Leishmania major amastigotes in peritoneal macrophages, percentage of infected macrophages (Giemsa); assay type: cell-based; conditions: Leishmania major amastigotes after 72 h, means of n = 3, SD ± 15%
macrophages = assay: Effects of test compounds on macrophages (toxicity); assay type: cell-based, BALB/c mice; conditions: means of n = 3, SD ± 15%

SMILES	EC50 (Toxoplasma gondii) [µM]	IC50 (Vero cells) [µM]	EC50 ([1]; Leishmania major, 72 h) [µM]	EC50 ([2]; Leishmania major, 72 h) [µM]	melting point	EC50 [1] [µM]	EC50 [2] [µM]	IC50 (macrophages; Mus musculus, Macrophage) [µM]	IC50 (macrophages) [µM]
O=C1C(O)=C([C@H]2CC[C@H](c3ccc(Cl)cc3)CC2)C(=O)c2ccccc21 [ATO, atovaquone, reference compound]	0.07	9.5	–	–	–	–	–	–	–
C[C@@H]1[C@H](O)[C@@H](C)/C=C/C=C/C=C/C=C/C=C/C=C/C=C/[C@H](O[C@@H]2O[C@H](C)[C@@H](O)[C@H](N)[C@@H]2O)C[C@@H]2O[C@](O)(C[C@@H](O)C[C@@H](O)[C@H](O)CC[C@@H](O)C[C@@H](O)CC(=O)O[C@H]1C)C[C@H](O)[C@H]2C(=O)O [AmB, Amphotericin B, reference compound]	–	7.7	0.83	0.47	–	–	–	–	–
N#CC1=C(N)n2c(nc3ccccc32)NC1c1cccc(F)c1 (centres unmarked) [Compound 2a, 4-Amino-2-(3-fluorophenyl)-1,2-dihydropyrimido[1,2-a]benzimidazole-3-carbonitrile]	4.59	4.32	0.2 to 0.4	0.2 to 0.4	216 to 217 °C (dec.)	0.39	0.2	0.98	–
N#CC1=C(N)n2c(nc3ccccc32)NC1c1cc(F)cc(F)c1 (centres unmarked) [Compound 2b, 4-Amino-2-(3,5-difluorophenyl)-1,2-dihydropyrimido[1,2-a]benzimidazole-3-carbonitrile]	43.6	33.1	108	22.9	279 to 280 °C	–	–	28.5	–
N#CC1=C(N)n2c(nc3ccccc32)NC1c1ccccc1F (centres unmarked) [Compound 2c]	26.9	18.3	49.8	24.9	–	–	–	31.4	–
N#CC1=C(N)n2c(nc3ccccc32)NC1c1ccc(F)cc1 (centres unmarked) [Compound 2d]	27.8	26.9	14.4	26.9	–	–	–	19.3	–
COc1cc(C2Nc3nc4ccccc4n3C(N)=C2C#N)cc(Br)c1OC (centres unmarked) [Compound 2e, 4-Amino-2-(3-bromo-4,5-dimethoxyphenyl)-1,2-dihydropyrimido[1,2-a]benzimidazole-3-carbonitrile]	28.6	57.2	77.9	75.5	282 to 283 °C	–	–	64	63.8
N#CC1=C(N)n2c(nc3ccccc32)NC1c1cccnc1 (centres unmarked) [Compound 2f, 4-Amino-2-(3-pyridyl)-1,2-dihydropyrimido[1,2-a]benzimidazole-3-carbonitrile]	60	106	53.4	116	289 to 290 °C	–	–	86	–
N#Cc1c(-c2cccc(F)c2)nc2nc3ccccc3n2c1N [Compound 3a, 4-Amino-2-(3-fluorophenyl)pyrimido[1,2-a]benzimidazole-3-carbonitrile]	35.9	38.3	35.6	28	> 370 °C (dec.)	–	–	22.4	–
N#Cc1c(-c2cc(F)cc(F)c2)nc2nc3ccccc3n2c1N [Compound 3b, 4-Amino-2-(3,5-difluorophenyl)pyrimido[1,2-a]benzimidazole-3-carbonitrile]	2.8	22.7	13.7	29	> 370 °C (dec.)	–	–	24.3	–
N#Cc1c(-c2ccccc2F)nc2nc3ccccc3n2c1N [Compound 3c, 4-Amino-2-(2-fluorophenyl)pyrimido[1,2-a]benzimidazole-3-carbonitrile]	20.8	25.7	32	27	> 350 °C (dec.)	–	–	21.1	–
N#Cc1c(-c2ccc(F)cc2)nc2nc3ccccc3n2c1N [Compound 3d]	41.9	43.5	36.9	26.1	–	–	–	20.1	–
N#CC1=C(n2cccc2)n2c(nc3ccccc32)NC1c1cccc(F)c1 (centres unmarked) [Compound 4a, 4-Pyrrolo-2-(3-fluorophenyl)-1,2-dihydropyrimido[1,2-a]benzimidazole-3-carbonitrile]	33.2	34.9	20.3	50.9	> 260 °C (dec.)	–	–	41.4	–
N#CC1=C(n2cccc2)n2c(nc3ccccc32)NC1c1cc(F)cc(F)c1 (centres unmarked) [Compound 4b, 4-Pyrrolo-2-(3,5-difluorophenyl)-1,2-dihydropyrimido[1,2-a]benzimidazole-3-carbonitrile]	18.2	32.4	28.9	46.1	> 240 °C	–	–	39.9	–
N#CC1=C(n2cccc2)n2c(nc3ccccc32)NC1c1ccccc1F (centres unmarked) [Compound 4c, 4-Pyrrolo-2-(2-fluorophenyl)-1,2-dihydropyrimido[1,2-a]benzimidazole-3-carbonitrile]	24.8	23.6	15.2	49.2	> 240 °C (dec.)	–	–	43.9	–
N#CC1=C(n2cccc2)n2c(nc3ccccc32)NC1c1ccc(F)cc1 (centres unmarked) [Compound 4d, 4-Pyrrolo-2-(4-fluorophenyl)-1,2-dihydropyrimido[1,2-a]benzimidazole-3-carbonitrile]	34.9	41.4	32.1	51.5	> 260 °C	–	–	47.3	–
